This is an account of results in patent US12343335B2, “Pharmaceutical composition for treating multiple sclerosis on basis of AMPK inhibitory function and zinc homeostasis control function” (ZINCURE CORP., priority 2019, dated 2025).

Data set [1] deals with cortical neurons of the cultured mice. Kind of data set: Zinc toxicity in cortical neurons, cell viability assay (Cell Counting Kit-8). It is filed as cell-based, mouse. As to conditions: ZnCl2 400 μM for 10 minutes, compound 20 μM. As for the experimental part:
(§1) The mouse cortical neurons used in the present invention were extracted from the brain of a mouse embryo, and cultured in Dulbecco's modified Eagle's medium (DMEM, Gibco, Grand Island, NY, US) supplemented with 5% fetal bovine serum (FBS) and 5% horse serum (HS) under the condition of 95% humidity, 5% CO2 and 37° C. For activation and differentiation of the cells, the cells were grown to a density of 2×10^4 cells in a 24-well tissue culture plate and cultured in MEM medium without FBS and HS before treatment with zinc and compounds.
According to an embodiment of the present invention, based on the structural similarity of 1H10 of the present invention, 25 similar compounds having a similar structure were purchased from a compound library manufacturer (InterBioScreen, Russia; Akos, Germany). Then, in order to induce zinc toxicity in the cortical neurons of the cultured mice, ZnCl2 (400 μM) was treated for 10 minutes, and after 12.5 hours, the selected 25 compounds and the previously selected drug 1H10 were treated (20 μM) and it was determined whether cell death was inhibited through cell viability assay (Cell Counting Kit-8, Dojindo).

In data set [2] the test system is mouse cortical neurons. Kind of data set: Oxidative stress by H2O2 in cortical neurons, LDH analysis. It is filed as cell-based. Conditions: H2O2 100 μM about 4 hours, compound 20 μM. As for the experimental part: as §1
(§2) The present inventors investigated the inhibitory effect against oxidative stress in addition to zinc toxicity for the eight drugs and 1H10 of the above examples. Specifically, oxidative damage induced neurotoxicity by treating mouse cortical neurons with H2O2 (100 μM) and FeCl2 (100 μM) for about 4 hours and 20 hours, respectively, and treatment with the 8 selected drugs and 1H10 (20 μM). Thereafter, cytotoxicity was observed through LDH (Lactate Dehydrogenase) analysis.

In data set [3] the test system is mouse cortical neurons. In words: Excitotoxicity by NMDA in cortical neurons. It is filed as cell-based. Conditions: NMDA 50 μM for 3 hours. The procedure: as §1
The present inventors investigated the inhibitory effect against excitotoxicity of the eight drugs and 1H10 of the above examples. Specifically, excitotoxicity was induced by treatment with NMDA (N-methyl-D-aspartate, 50 μM) in mouse cortical neurons for 3 hours.

Data set [4] concerns mouse cortical neurons. Kind of data set: Apoptosis by etoposide (ETPS) in cortical neurons, LDH cytotoxicity. The format is cell-based. Conditions: etoposide 10 μM for 20 hours, compound 20 μM. As for the experimental part: as §1
The present inventors investigated the inhibitory effect against neuronal cell death of the eight drugs and 1H10 of the above examples. Specifically, neurotoxicity due to apoptosis was induced by treatment with etoposide (ETPS, 10 μM) in mouse cortical neurons for 20 hours. Then, the selected 8 drugs and 1H10 were treated (20 μM) and LDH cytotoxicity was observed.

Data set [5] deals with mouse cortical neuron culture. In words: Intrinsic toxicity in cortical neuron culture, LDH cytotoxicity. It is filed as cell-based. As to conditions: 40 μM; for intrinsic toxicity in words: 48 hours of drug treatment. As for the experimental part: as §1
Specifically, 40 μM of each of the drugs was treated in a mouse cortical neuron culture, and LDH cytotoxicity was observed after 24 or 48 hours.

Data set [6] in a line: Zinc chelation in a test tube with FluoZin-3. Conditions: 1 μM zinc, 5 μM FluoZin-3, compared with 1H10. It is filed as binding. The procedure: The present inventors treated FluoZin-3, a substance illuminate fluorescence if it bind to free zinc to cultivated neurons in order to verify the possibility of zinc chelation according to the treatment of 1H10 {(Z)-5-((1H-indol-3-yl)methylene)-2-((3-hydroxyphenyl)amino)thiazol-4(5H)-one} according to an embodiment of the present invention, and then measured cytosolic zinc level in the neurons for 60 min after exposing zinc (300 μM) for 15 minutes and removing the zinc. In addition, 20 μM zinc (ZnCl2) and NewPort Green DCF fluorophore, which emits fluorescence when it bind to zinc, were added to the test tube, and 1H10 of the present invention was treated at various concentrations. Clioquinol, a zinc chelator, and calcium ionophore Phosphorus ionomycin was used as controls.
In addition, after reacting various concentrations of (0, 0.5, 1, 2, 5, 10, 20, 40 μM) 1H10 or clioquinol with 1 μM zinc and 5 μM fluorescent labeled drug for free zinc (FluoZin-3) in a test tube and fluorescence values were measured. […] 1H10 of the present invention binds zinc even at a lower concentration than clioquinol, but at a high concentration, zinc binding strength is considered to be lower than that of clioquinol (FIG. 5B).

The test system of the next data set is EAE. As to conditions: zinc chelator administrated to EAE animals; cited from earlier work.
Data set [7] relates to mouse cortical neurons. Kind of data set: Oxidative damage by iron (FeCl2) in cortical neurons, LDH analysis. It is filed as cell-based. Conditions: FeCl2 100 μM about 20 hours, compound 20 μM. As for the experimental part: as §1, §2

As for `Cc1ccc(NC2=NC(=O)/C(=C/c3c[nH]c4ccccc34)S2)cc1C` [4B01, (5Z)-2-[(3,4-Dimethylphenyl)amino]-5-(1H-indol-3-ylmethylene)-1,3-thiazol-4(5H)-one], the “neuroprotective effect against zinc toxicity (cell viability)” value (shortened to “neuroprotective effect … (cell viability)”) in data set [1] is “neuroprotective effect”. For the same compound, the “inhibition of H2O2 toxicity (LDH)” value in the data set with mouse cortical neurons [2] is reported as “significantly inhibit”. The “inhibition of excitotoxicity caused by NMDA” value (“inhibition … by NMDA” below) with mouse cortical neurons [3] is listed as “significantly inhibited”. In the data set on mouse cortical neurons [4], the “inhibitory effect against ETPS toxicity (LDH)” value (from here on “inhibitory effect”) was “significant inhibitory effect”. Besides, the “intrinsic toxicity in words” value in data set [5] is “stronger intrinsic toxicity than 1H10”.
In the case of `Cc1cccc(NC2=NC(=O)/C(=C/c3c[nH]c4ccccc34)S2)c1C` [4B04, (5Z)-2-[(2,3-Dimethylphenyl)amino]-5-(1H-indol-3-ylmethylene)-1,3-thiazol-4(5H)-one], the “neuroprotective effect … (cell viability)” value in data set [1] is given as “neuroprotective effect”. Besides, the “inhibition of H2O2 toxicity (LDH)” value with mouse cortical neurons [2] is recorded as “significantly inhibit”.
Take `O=C1N=C(Nc2ccccc2C(=O)O)S/C1=C/c1c[nH]c2ccccc12` [4C06, (E)-2-((5-((1H-indol-3-yl)methylene)-4-oxo-4,5-dihydrothiazol-2-yl)amino)benzoic acid]: the “neuroprotective effect … (cell viability)” value in data set [1] was “neuroprotective effect”. Moreover, the “inhibitory effect” value with mouse cortical neurons [4] is given as “significant inhibitory effect”.
For the compound `Oc1c(I)cc(Cl)c2cccnc12` [clioquinol], the “final FluoZin-3 fluorescence value” in data set [6] is “lower”. Also, in the data set with EAE, the “T cell infiltration that cause encephalitis” value is on record as “inhibitored”; the “demyelination and microglia activity in EAE” value was “reduced”.
With `O=C1N=C(Nc2ccc(O)c(C(=O)O)c2)S/C1=C\c1c[nH]c2ccccc12` [4C08, (Z)-5-((5-((1H-indol-3-yl)methylene)-4-oxo-4,5-dihydrothiazol-2-yl)amino)-2-hydroxy benzoic acid], in data set [1], the “neuroprotective effect … (cell viability)” value is recorded as “neuroprotective effect”. Besides, in the data set on mouse cortical neurons [7], the “inhibition of oxidative damage caused by iron (LDH)” value is “inhibited”. In the data set with mouse cortical neurons [3], the “inhibition … by NMDA” value is on record as “significantly inhibited”. Besides, the “inhibitory effect” value with mouse cortical neurons [4] is “significant inhibitory effect”. In data set [5], the “intrinsic toxicity in words” value is on record as “did not show intrinsic toxicity”.
For the compound `CCCCc1ccc(NC2=NC(=O)/C(=C/c3c[nH]c4ccccc34)S2)cc1` [4C01, (Z)-5-((1H-indol-3-yl)methylene)-2-((4-butylphenyl)amino)thiazol-4(5H)-one], the “neuroprotective effect … (cell viability)” value in data set [1] was “neuroprotective effect”. The “inhibition of H2O2 toxicity (LDH)” value in the data set on mouse cortical neurons [2] is on record as “significantly inhibit”. In the data set with mouse cortical neurons [3], the “inhibition … by NMDA” value is on record as “significantly inhibited”. In the data set with mouse cortical neurons [4], the “inhibitory effect” value is recorded as “significant inhibitory effect”. Besides, the “intrinsic toxicity compared with 1H10” value in data set [5] (24 or 48 hours (time not specified)) is listed as “insignificant difference from 1H10”.
For `Cc1ccc(/N=C2\NC(=O)/C(=C/c3c(C)[nH]c4ccccc34)S2)cc1` [4C03, (2E,5Z)-5-((2-methyl-1H-indol-3-yl)methylene)-2-(p-tolylimino)thiazolidin-4-one], the “neuroprotective effect … (cell viability)” value in data set [1] was “neuroprotective effect”. The “inhibition of H2O2 toxicity (LDH)” value with mouse cortical neurons [2] is “significantly inhibit”. For the same compound, in the data set on mouse cortical neurons [3], the “inhibition … by NMDA” value is “significantly inhibited”.
The corresponding values for `Cc1ccc(/N=C2/NC(=O)/C(=C\c3c(C)[nH]c4ccccc34)S2)cc1` [4C04, (2Z,5E)-5-((2-methyl-1H-indol-3-yl)methylene)-2-(p-tolylimino)thiazolidin-4-one] are “neuroprotective effect”, “significantly inhibit” and “significantly inhibited”.
